In patent US20190353647A1, “NOVEL REAL-TIME MULTIPLEXED, MULTI-COLOR BIOLUMINESCENCE RESONANCE ENERGY TRANSFER ASSAY, APPARATUS, AND USES THEREOF” (Universite de Bordeaux, priority 2016, published 2019):

Tests used:
Type in all cases: cell-based
TRPV1 [1] = biological target: T1, TRPV1 (Homo sapiens, UniProt Q8NER1); assay: Calcium assay in transfected HEK293T cells; settings: cells expressing TRPV1, YFP-TRPV1-Luc or TRPV1-Luc; not in mock-transfected cells
T1 construct: expressed in transfected cells; host or cells: HEK293T
Protocol: TRP channel activation was evaluated in transfected HEK293T human embryonic-kidney cells. […] For this purpose, we measured calcium entry in mock-transfected or transfected HEK293T cells with either native TRPV1 or the BRET constructs, YFP-TRPV1-Luc or TRPV1-Luc.

TRPV1 [2] = biological target: T1, TRPV1; assay: Three-color spectral BRET, TRPV1-Luc/mAmetrine-CaM component in mixed HEK293T cells; settings: 20 μM CAPS injected at 75 seconds, real time, mixed cell population
Text: Using the LabView programming language (National Instruments, Austin, Tex., USA), an interface was developed to run the acquisition of the bioluminescent spectra and perform real-time spectral decomposition of the BRET signal into its various components. The experimental emission spectra of Luc, YFP, mAmetrine, aquamarine, and Lss-mOrange were first obtained experimentally using a Cary Eclipse Fluorimeter (Agilent Technology, Santa Clara, Calif., USA) (FIG. 3). Each spectrum was then fitted as a sum of Gaussian curves based on Eq.3.: […]

TRPV3 = biological target: T2, TRPV3 (Homo sapiens, UniProt Q8NET8); assay: Three-color spectral BRET, Luc-TRPV3/aquamarine-CaM component in mixed HEK293T cells; parameters: expressed in transfected cells; host or cells: HEK293T (mixed with two other transfected populations); settings: one mM Drofenine injected at 75 seconds, real time, mixed cell population
T2 sequence (Q8NET8 1-790): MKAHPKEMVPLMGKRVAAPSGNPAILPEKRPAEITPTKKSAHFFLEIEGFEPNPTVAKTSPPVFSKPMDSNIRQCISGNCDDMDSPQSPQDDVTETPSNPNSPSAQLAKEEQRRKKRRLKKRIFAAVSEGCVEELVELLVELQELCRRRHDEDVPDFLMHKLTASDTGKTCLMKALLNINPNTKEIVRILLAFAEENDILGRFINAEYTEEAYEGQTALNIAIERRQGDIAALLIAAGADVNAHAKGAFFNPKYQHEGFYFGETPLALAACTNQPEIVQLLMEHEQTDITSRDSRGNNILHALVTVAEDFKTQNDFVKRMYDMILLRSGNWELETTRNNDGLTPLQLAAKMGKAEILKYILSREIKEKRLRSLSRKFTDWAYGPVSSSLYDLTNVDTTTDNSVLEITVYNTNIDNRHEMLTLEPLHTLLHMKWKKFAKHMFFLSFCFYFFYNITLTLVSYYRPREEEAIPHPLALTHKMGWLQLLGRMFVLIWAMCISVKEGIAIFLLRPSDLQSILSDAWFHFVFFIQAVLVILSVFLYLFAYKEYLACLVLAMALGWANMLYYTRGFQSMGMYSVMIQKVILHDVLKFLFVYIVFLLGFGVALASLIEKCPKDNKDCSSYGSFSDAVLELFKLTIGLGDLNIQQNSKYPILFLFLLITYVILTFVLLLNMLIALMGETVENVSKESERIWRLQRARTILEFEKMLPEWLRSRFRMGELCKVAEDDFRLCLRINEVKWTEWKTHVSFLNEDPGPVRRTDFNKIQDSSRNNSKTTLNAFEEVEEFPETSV
Text: (§1) FIG. 2: Multiplexing measurements of TRPV activity using multicolor BRET. (A) Example of a three-color BRET spectrum and its decomposition, measured in a coculture containing three HEK293T subpopulations transfected with aquamarine-Luc, mAmetrine-Luc, or LSSmOrange-Luc. The grey dots represent the experimental data. Black, light grey, medium grey, and grey solid lines represent the spectral components of Luc, aquamarine, mAmetrine, and LSSmOrange, respectively. […] Results represent the mean of three independent experiments.
(§2) Full BRET spectra were acquired using an optical fiber linked to a Spectra Pro 2300i spectrometer, equipped with a liquid-nitrogen-cooled CCD camera for recording the full visible spectrum (Acton Optics, Acton, Mass., USA). The bioluminescent signal was recorded from transfected cells seeded onto a glass coverslip and placed into a white opaque measurement chamber made of Teflon® and containing an isotonic solution (NaCl 145 mM, KCl 5 mM, KH2PO4 4 mM, CaCl2 1 mM, MgSO4 1 mM, Glucose 10 mM). The temperature of the cell buffer was regulated using an Eppendorf® ThermoStat Plus and measured in real time using a fiber-optic temperature measurement Luxtron 812 system (Lumasense technologies, Santa Clara, Calif., USA). […]

TRPV4 = TRPV4 (Homo sapiens, UniProt Q9HBA0); assay: Three-color spectral BRET, TRPV4-Luc/LSSmOrange-CaM component in mixed HEK293T cells; parameters: expressed in transfected cells; host or cells: HEK293T (mixed with two other transfected populations); settings: 100 nM GSK101 injected at 75 seconds, real time, mixed cell population
Text: as §1, §2

T1 sequence (Q8NER1 whole entry): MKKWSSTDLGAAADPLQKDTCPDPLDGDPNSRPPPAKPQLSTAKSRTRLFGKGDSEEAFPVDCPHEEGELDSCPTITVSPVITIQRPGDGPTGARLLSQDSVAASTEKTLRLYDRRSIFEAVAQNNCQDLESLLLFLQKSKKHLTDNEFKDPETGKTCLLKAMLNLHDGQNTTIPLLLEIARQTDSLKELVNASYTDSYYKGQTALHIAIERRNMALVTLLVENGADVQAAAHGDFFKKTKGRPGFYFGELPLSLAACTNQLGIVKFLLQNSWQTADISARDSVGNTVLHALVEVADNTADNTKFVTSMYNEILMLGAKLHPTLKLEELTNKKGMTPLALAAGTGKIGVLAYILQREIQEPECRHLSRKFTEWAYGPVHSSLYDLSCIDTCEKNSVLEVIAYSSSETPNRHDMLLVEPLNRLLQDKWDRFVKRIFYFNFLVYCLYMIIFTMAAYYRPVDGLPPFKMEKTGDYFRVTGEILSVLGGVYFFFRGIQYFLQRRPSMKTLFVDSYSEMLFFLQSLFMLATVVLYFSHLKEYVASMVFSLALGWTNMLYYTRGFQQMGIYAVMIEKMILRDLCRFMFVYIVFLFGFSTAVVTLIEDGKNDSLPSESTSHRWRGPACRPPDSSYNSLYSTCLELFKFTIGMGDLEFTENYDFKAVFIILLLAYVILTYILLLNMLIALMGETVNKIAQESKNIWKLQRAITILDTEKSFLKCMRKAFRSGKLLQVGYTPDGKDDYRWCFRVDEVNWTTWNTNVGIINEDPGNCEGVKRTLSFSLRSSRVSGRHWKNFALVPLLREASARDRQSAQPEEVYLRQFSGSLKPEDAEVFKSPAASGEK
TRPV4, sequence (Q9HBA0 whole entry): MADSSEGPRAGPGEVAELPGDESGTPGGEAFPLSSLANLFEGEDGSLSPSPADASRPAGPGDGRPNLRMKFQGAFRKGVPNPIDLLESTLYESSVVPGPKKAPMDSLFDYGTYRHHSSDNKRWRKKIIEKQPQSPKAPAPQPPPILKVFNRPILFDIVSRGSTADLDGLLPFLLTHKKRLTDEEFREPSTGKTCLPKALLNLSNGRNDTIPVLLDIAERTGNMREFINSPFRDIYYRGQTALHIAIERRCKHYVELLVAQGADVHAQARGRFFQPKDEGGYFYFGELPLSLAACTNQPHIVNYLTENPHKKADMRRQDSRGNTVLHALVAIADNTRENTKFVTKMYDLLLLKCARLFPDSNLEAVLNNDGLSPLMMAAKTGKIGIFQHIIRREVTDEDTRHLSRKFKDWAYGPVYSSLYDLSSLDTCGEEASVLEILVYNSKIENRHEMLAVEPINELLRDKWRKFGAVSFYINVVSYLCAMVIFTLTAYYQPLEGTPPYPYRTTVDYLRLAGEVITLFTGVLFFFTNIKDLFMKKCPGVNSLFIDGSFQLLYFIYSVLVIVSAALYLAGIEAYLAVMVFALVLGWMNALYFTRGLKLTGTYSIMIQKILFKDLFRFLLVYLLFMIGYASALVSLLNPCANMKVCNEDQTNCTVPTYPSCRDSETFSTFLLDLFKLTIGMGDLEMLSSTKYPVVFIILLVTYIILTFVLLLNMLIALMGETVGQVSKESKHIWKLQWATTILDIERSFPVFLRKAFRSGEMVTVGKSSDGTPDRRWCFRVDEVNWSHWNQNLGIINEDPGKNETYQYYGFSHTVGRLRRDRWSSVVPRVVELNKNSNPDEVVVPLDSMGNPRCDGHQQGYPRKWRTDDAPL

COc1cc(CNC(=O)CCCC/C=C/C(C)C)ccc1O [CAPS, Capsaicin]
Cytosolic calcium concentration (TRPV1 [1]): rapid, maintained increase
TRPV1 BRET signal in three-color assay (TRPV1 [2]): time-dependent increase

CCN(CC)CCOC(=O)C(c1ccccc1)C1CCCCC1 (stereo not shown) [Drofenine]
TRPV3-related BRET component in three-color assay (TRPV3): increase in only the TRPV3-related BRET component

CC(C)C[C@H](NC(=O)c1cc2ccccc2s1)C(=O)N1CCN(C(=O)[C@H](CO)NS(=O)(=O)c2ccc(Cl)cc2Cl)CC1 [GSK1016790A]
TRPV4 BRET signal in three-color assay (TRPV4): time-dependent increase
